These results are taken from US5142095A, “Diarylalkanoids having activity as lipoxygenase inhibitors” (Warner-Lambert Company, priority 1989, dated 1992).

One test has as its target T1, 5-lipoxygenase (Homo sapiens, UniProt P09917).
T1 construct: endogenous in cells; host or cells: leukocytes isolated from fresh human blood
T1 sequence (P09917 1-674): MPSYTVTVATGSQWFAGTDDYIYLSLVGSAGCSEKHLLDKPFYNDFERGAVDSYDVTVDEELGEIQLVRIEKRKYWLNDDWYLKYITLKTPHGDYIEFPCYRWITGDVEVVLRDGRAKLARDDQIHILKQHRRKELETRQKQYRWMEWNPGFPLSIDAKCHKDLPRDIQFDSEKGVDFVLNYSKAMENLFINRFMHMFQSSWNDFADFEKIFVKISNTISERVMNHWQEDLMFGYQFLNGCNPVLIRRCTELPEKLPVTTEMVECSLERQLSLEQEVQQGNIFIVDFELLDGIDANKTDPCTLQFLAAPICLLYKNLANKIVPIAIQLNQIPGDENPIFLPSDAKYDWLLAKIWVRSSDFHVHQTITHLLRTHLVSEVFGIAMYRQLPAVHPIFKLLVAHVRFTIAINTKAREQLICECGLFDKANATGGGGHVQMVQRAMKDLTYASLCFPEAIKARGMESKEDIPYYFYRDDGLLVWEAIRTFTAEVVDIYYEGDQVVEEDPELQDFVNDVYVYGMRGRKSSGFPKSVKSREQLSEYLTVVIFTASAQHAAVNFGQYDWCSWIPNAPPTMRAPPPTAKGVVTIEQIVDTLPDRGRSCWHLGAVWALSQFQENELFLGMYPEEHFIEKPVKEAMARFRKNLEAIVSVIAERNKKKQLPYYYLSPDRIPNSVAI
The test can be described thus: 5-Lipoxygenase Assay Using Isolated Human Leukocytes (5LOA2), 5-HETE formation. In kind it is cell-based. To be noted: for pIC50: 50% inhibition of 5-HETE formation in human leukocytes, 20 μM arachidonic acid, 10 μM A23187, read-out: 5-LOA IC50; for inhibition at 20 µM: read-out: 5-LOA % inhibition at 20 μM. How it is done:
5-Lipoxygenase Assay Using Isolated Human Leukocytes (5LOA2)
The formation of 5-HETE in human leukocytes is considered a measure of 5-lipoxygenase activity. The protocol is described in the following.
Fresh heparinized or EDTA treated human blood is mixed with 6% dextran-3% dextrose in isotonic saline in the ratio 0.25 ml dextran solution per 1.0 ml blood. After mixing the blood is allowed to sit at room temperature for about 90 minutes while the RBC's settle. During this period, the plasma is removed with a plastic pipette to nalgens tubes.
The plasma is centrifuged at 800 rpm ([…]) on the Beckman Td-b refrigerated centrifuge to remove the platelets (which remain in the supernatant). The pellet, consisting of leukocytes and erythrocytes, is treated with 10 ml 0.87% ammonium chloride at room temperature for four minutes, lysing the red cells. At the end of four minutes the cells are diluted with a 2× volume of phosphate buffered saline, pH 7.4, and centrifuged for ten minutes. The cells are washed three times with the phosphate buffered saline. Any of the pelleted cell matter which is not easily resuspended is discarded during the washings--the material contains platelets (12-lipoxygenase activity).
After washing, the cells are resuspended in phosphate buffered saline containing 1.0 mM calcium and 0.5 mM magnesium. After counting, the cells are diluted to 1.5-2.0×10^-7 leukocytes per milliliter.
To each poly propylene reaction tube is added 0.48 ml leukocytes in Ca-Mg phosphate buffered saline, pH 7.4; 1-5 μl test compound dissolved in DMSO and buffer; or DMSO for control tubes.
The tubes preincubate at 37° C. for five minutes.
The reaction is started by adding 20 μl of the following, 0.5 μl, 20 mM arachidonic acid--final concentration =20 μm; 1 μl, 5 mM calcium ionophore A23187--final concentration =10 μm; and 18.5 μl buffer.
The reaction proceeds for five minutes, then is stopped by adding 0.5 ml, 0.5 mM ice cold Tris buffer, pH 8.0. The tubes are chilled on ice for ten minutes and then extracted three times with a total of 3.5 ml ethyl acetate (3.0 ml removed).
The tubes can be stored at this point. For extended storage, the tubes should be filled with nitrogen.
The ethyl acetate is evaporated with a Sorvall Speed-Vac. The residue is dissolved in ethanol. The tubes can also be stored at this point at -20° C. under nitrogen.
A portion of the ethanol solution is injected into the HPLC system for 5-HETE quantitation.
The HPLC system consists of Hewlett-Packard 1040A UV spectrophotometry system with an HP85 computer. Injections are made automatically with a Waters WISP 710B. The pump is a Spectra Physics SP8700. Peaks are measured with a Hewlett Packard 3390A integrator. An RP C-18 column is used. The solvent system is isocratic; the solvent is 70% methanol and 30% 0.01M sodium acetate, pH 5.7, pumped at 1.0 ml/min. The flow is monitored at 235 nm for 5-HETE quantitation. Using a 15 cm Alltech Nucleosil C-18 5 μM column provides for a sample turnaround time of about 16 minutes.
IC50 is calculated as the amount of test agent that causes 50% inhibition of the formation of 5-HETE relative to the control.

The next test deals with T2, Cyclooxygenase (Bos taurus, UniProt O62664).
T2 construct: The assay consists of incubating 2 mg bovine seminal vesicle powder; from tissue; host or cells: bovine seminal vesicle powder
T2 sequence (O62664 25-600): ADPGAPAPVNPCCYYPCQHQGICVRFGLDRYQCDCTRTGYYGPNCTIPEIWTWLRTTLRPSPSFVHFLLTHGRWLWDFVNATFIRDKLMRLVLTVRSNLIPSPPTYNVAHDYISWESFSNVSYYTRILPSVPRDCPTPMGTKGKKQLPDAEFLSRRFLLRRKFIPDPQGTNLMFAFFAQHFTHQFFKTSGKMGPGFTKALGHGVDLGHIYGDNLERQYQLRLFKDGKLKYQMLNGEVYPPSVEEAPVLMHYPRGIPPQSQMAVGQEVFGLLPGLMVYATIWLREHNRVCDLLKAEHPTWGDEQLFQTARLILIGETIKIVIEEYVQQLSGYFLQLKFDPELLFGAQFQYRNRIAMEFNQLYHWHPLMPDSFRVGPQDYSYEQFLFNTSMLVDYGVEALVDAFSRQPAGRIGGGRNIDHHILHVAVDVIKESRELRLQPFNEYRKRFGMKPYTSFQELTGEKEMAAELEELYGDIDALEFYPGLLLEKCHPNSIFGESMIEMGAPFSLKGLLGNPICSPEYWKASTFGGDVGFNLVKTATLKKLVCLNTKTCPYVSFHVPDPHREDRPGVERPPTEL
The test can be described thus: Cyclooxygenase Enzyme Assay (BSV), bovine seminal vesicle powder, PGE2 formation. It is filed as biochemical. To be noted: 100 μM arachidonic acid, 20 minutes. As to the method: Cyclooxygenase Enzyme Assay (BSV) […]
The assay consists of incubating 2 mg bovine seminal vesicle powder with 2 mM epinephrine, 2.5 mM reduced glutathione, 100 μM arachidonic acid, and the test agent for 20 minutes. The reaction mixture is acidified and extracted with ethyl acetate (3×1.0 ml) and the pooled extract is evaporated to dryness using a Speed Vac Concentrator or under a stream of nitrogen. The residue is dissolved in ethanol An aliquot is applied on 20×20 cm silica gel plate and developed using water:ethyl acetate:hexane:acetic acid (60:54:25:12.5, upper phase) to separate PGE2 from arachidonic acid. ^14 C-PGE2 formed is identified by co-chromatography with authentic ^3 H-PGE2 and the amount of radioacitvity is quantitated using an automatic TLC linear scanner (Berthold, Pittsburgh, Pa.) linked to an Apple II-e computer and an ICso is calculated as the amount of test agent causing 50% inhibition of Cyclooxygenase Enzyme relative to the control.

pIC50: −log10 of the molar value.

For orientation: pIC50 means the negative decadic logarithm of the IC50, by convention in mol/L. Broadly, the inhibition is the relative decrease from the control value, in per cent.

As to `COc1ccc(/C=C/C(CCCCc2ccccc2)=NO)cc1O` [Example 18], the pIC50 on 5-lipoxygenase was 5.23. Regarding `COc1cc(/C=C/C(=O)CCc2ccccc2)ccc1O` [Example 9], the figures for the negative logarithm of the IC50 (pIC50) on 5-lipoxygenase and on Cyclooxygenase were 4.82 and 4.51, respectively.

As to `COc1cc(C=CC(COc2ccccc2)=NO)ccc1O` [Example 24, 1-(4-Hydroxy-3-methoxyphenyl)-4-phenoxy-1-buten-3-one oxime], the results for the pIC50 at 5-lipoxygenase and against Cyclooxygenase were 5.60 and 4.24, respectively. For `COc1cc(C=CC(CCCOc2ccccc2)=NO)ccc1O` [Example 25, 1-(4-Hydroxy-3-methoxyphenyl)-6-phenoxy-1-hexen-3-one oxime], in that order: 6.15 and 3.77. For `Nc1cc(/C=C/C(CCc2ccccc2)=NO)ccc1O` (single isomer, unassigned) [23 (Isomer A), 1-Penten-3-one, 1-(3-amino-4-hydroxyphenyl)-5-phenyl, oxime], in that order: 6.78 and 4.01. For `COc1cc(/C=C/C(CCc2ccccc2)=NO)ccc1O` [Example 21, 1-Penten-3-one, 1-(4-hydroxy-3-methoxyphenyl)-5-phenyl, oxime], in that order: 6.38 and 4.48. `COc1cc(C=CC(=O)CCCOc2ccccc2)ccc1O` [Example 14, 1-(4-Hydroxy-3-methoxyphenyl)-6-phenoxy-1-hexene-3-one]: the pIC50 is 4.96 on 5-lipoxygenase and 4.51 against Cyclooxygenase. The matching figures for `COc1cc(C=CC(=O)CCc2ccc(O)c(OC)c2)ccc1O` [Example 13, 1-Penten-3-one, 1,5-bis(4-hydroxy-3-methoxyphenyl)]: 4.72 and 4.08. In the case of `O=C(/C=C/c1ccc(O)c(O)c1)CCCCc1ccccc1` [Example 2, 1-(3,4-dihydroxyphenyl)-7-phenyl-1-hepten-3-one], at 5-lipoxygenase, the pIC50 is 5.77. Same read-out and setting: then `O=C(/C=C/c1ccc(O)c(Cl)c1)CCCCc1ccccc1` [Example 5], with 5.06. Regarding `COc1cc(C=CC(=O)COc2ccccc2)ccc1O` [Example 16, 1(4'-Hydroxy-3'-methoxyphenyl)-4-phenoxy-1-butene-3-one], the results for the negative-log IC50 (pIC50) at 5-lipoxygenase and on Cyclooxygenase were 4.70 and 3.89, respectively. Consider `Nc1cc(/C=C/C(CCc2ccccc2)=NO)ccc1O` (single isomer, unassigned) [23 (Isomer B), 1-Penten-3-one, 1-(3-amino-4-hydroxyphenyl)-5-phenyl, oxime], for which the pIC50 was 6.59 at 5-lipoxygenase and 4.05 on Cyclooxygenase. For `Nc1cc(/C=C/C(=O)CCc2ccccc2)ccc1O` [Example 15, 1-Pentene-3-one, 1-(3-amino-4-hydroxyphenyl)-5phenyl], in that order: 7.10 and 3.77.

`O=C(/C=C/c1ccc(C(=O)O)cc1)CCCCc1ccccc1` [Example 6]: at 5-lipoxygenase, the inhibition at 20 µM was 19%. For the compound `COc1ccc(C=CC(=O)CCCCc2ccccc2)cc1O` [Example 1, 1-(3-Hydroxy-4-methoxyphenyl)-7-phenyl-1-hepten3-one], the pIC50 at 5-lipoxygenase was 4.96. With `O=C(/C=C/c1ccc(O)cc1)CCCCc1ccccc1` [Example 3], the inhibition at 20 µM at 5-lipoxygenase turned out to be 30%. Regarding `OCc1cc(/C=C/C(CCCCc2ccccc2)=NO)ccc1O` [Example 20], the pIC50 at 5-lipoxygenase is 5.06.

`O=C(/C=C/c1ccc(O)c(O)c1)CCCc1ccccc1` [Example 8]: the negative logarithm of the IC50 (pIC50) on 5-lipoxygenase is 5.70.

As to `O=C(/C=C/c1ccc(O)c(CO)c1)CCc1ccccc1` [Example 10], the results for the negative-log IC50 (pIC50) on 5-lipoxygenase and against Cyclooxygenase were 4.74 and 4.04, respectively. Turning to `CON=C(C=Cc1ccc(O)c(OC)c1)CCCCc1ccccc1` [Example 26, 1-(4-Hydroxy-3-methoxyphenyl)-7-phenyl-1-hepten-3-one, O-methyl oxime], the pIC50 on 5-lipoxygenase is 5.52. In the case of `ON=C(/C=C/c1ccc(O)c(O)c1)CCCCc1ccccc1` [Example 19, 1-Hepten-3-one, 1-(3,4-dihydroxyphenyl)-7-phenyl, oxime], the negative-log IC50 (pIC50) is 6.00 on 5-lipoxygenase and 3.90 against Cyclooxygenase. The matching figures for `O=C(/C=C/c1ccc(O)c(Cl)c1)CCc1ccccc1` [Example 11]: 4.66 and 3.96.

Turning to `OCc1cc(/C=C/C(CCc2ccccc2)=NO)ccc1O` [Example 22], on 5-lipoxygenase, the pIC50 was 4.46. Take `COc1cc(/C=C/C(CCCCc2ccccc2)=NO)ccc1O` [Example 17, 1-Hepten-3-one, 1-(4-hydroxy-3-methoxyphenyl)-7-phenyl, oxime]: the pIC50 was 5.77 at 5-lipoxygenase and 4.64 against Cyclooxygenase. For `COc1cc(C=CC(=O)CSc2ccccc2)ccc1O` [Example 16A, 1-(4-Hydroxy-3-methoxyphenyl)-4-phenylthio-1-butene-3-one], the pIC50 at 5-lipoxygenase is 4.92. Turning to `O=C(/C=C/c1ccc(O)c(CO)c1)CCCCc1ccccc1` [Example 4], the inhibition at 20 µM on 5-lipoxygenase came out at 17%. For the compound `COc1cc(/C=C/C(=O)CCCc2ccccc2)ccc1O` [Example 7], the pIC50 on 5-lipoxygenase is 4.74.

As to `O=C(/C=C/c1ccc(O)c([N+](=O)[O-])c1)CCc1ccccc1` [Example 12, 1-Pentene-3-one, 1-(4-hydroxy-3-nitrophenyl)-5-phenyl], the inhibition at 20 µM on 5-lipoxygenase worked out at 22%. At Cyclooxygenase, this compound gave a pIC50 of 3.87.
